Results published in ChEMBL document CHEMBL6092155, “211At radiolabeled APBA-FAPI for enhanced targeted-alpha therapy of glioma” (Eur J Med Chem, 2024).
The source made the active and inactive calls. No cut-off for these calls is given here.

Key:
[1] = Octanol/[…] partition coefficient, log P of the compound; type: physicochemical
[2] = Drug penetration in human FAPalpha-positive U-87 MG cells assessed as blood brain barrier translocation rate incubated upto 4 hrs by invitro BBB assay (reference value: 0.54+/-0.12%); type: ADME, cell-based; settings: u-87mg atcc
[3] = Drug uptake in human FAPalpha-negative MCF7 cells incubated for 120 min by gamma counter analysis relative to control; type: ADME, cell-based; settings: mcf7, 2 h
[4] = Drug uptake in human FAPalpha-positive U-87 MG cells incubated for 120 min by gamma counter analysis relative to control; type: ADME, cell-based; settings: u-87mg atcc, 2 h
[5] = Drug uptake in mouse FAPalpha-negative 4T1 cells incubated for 120 min by gamma counter analysis relative to control; type: ADME, cell-based; settings: 4t1, 2 h
[6] = Stability of the compound in fetal bovine serum assessed as radiochemical purity (RCP) incubated for 3 to 24 hrs relative to control; type: ADME, cell-free, Bos taurus; settings: cattle, time 3-24 hrs
[7] = Stability of compound in PBS incubated for 3 to 24 hrs assessed as radiochemical purity (RCP) relative to control; type: physicochemical; settings: buffer; time 3-24 hrs
Albumin [8] = target: T1, Albumin (Homo sapiens, UniProt P02768); assay: Binding affinity to human serum albumin assessed as binding rate incubated for 30 min relative to control; type: ADME; settings: isolated protein, 0.5 h
T1 sequence (P02768 whole entry): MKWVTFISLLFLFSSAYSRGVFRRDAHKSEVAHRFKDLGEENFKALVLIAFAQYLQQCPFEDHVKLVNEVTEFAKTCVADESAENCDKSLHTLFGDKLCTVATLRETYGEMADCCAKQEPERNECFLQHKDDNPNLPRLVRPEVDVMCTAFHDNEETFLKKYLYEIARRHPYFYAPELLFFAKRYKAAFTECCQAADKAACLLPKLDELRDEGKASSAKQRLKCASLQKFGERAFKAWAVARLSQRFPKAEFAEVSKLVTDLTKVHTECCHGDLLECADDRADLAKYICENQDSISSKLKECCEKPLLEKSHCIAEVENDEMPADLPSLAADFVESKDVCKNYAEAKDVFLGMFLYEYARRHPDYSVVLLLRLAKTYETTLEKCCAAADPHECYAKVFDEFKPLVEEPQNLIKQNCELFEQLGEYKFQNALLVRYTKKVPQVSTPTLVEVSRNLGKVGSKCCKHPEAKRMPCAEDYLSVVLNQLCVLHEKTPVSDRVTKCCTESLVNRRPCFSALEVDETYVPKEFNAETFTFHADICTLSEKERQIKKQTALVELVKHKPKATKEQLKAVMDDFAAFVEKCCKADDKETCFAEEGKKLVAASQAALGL

Albumin [9] = target: T1, Albumin; assay: Binding affinity to human serum albumin assessed as decrease in HAS binding incubated for 30 mins under warfarin blocking relative to control; type: ADME; parameters: scale not given: the % may be the effect or the level left; settings: isolated protein, 0.5 h
Albumin [10] = target: T1, Albumin; assay: Binding affinity to human serum albumin assessed as decrease in HAS binding incubated for 30 mins under ibuprofen relative to control; type: ADME; parameters: scale not given: the % may be the effect or the level left; settings: isolated protein, 0.5 h
[11] = Drug uptake in human FAPalpha-positive U-87 MG cells incubated for 30 to 120 min by gamma counter analysis relative to control; type: ADME, cell-based; settings: u-87mg atcc, time 30-120 min
[12] = Drug uptake in human U-87 MG cells incubated for 120 min under FAPI-04 monomer blocking condition by gamma counter analysis relative to control; type: ADME, cell-based; settings: u-87mg atcc, 2 h
U-87 MG [13] = assay: Antiproliferative activity against human U-87 MG cells assessed as inhibition of cell viability at 18.5 KBq incubated for 12 hrs followed by replacement with fresh media and measured after 24 hrs by CCK-8 method relative to control; type: functional, U-87MG ATCC
U-87 MG [14] = assay: Antiproliferative activity against human U-87 MG cells assessed as inhibition of cell viability at 148 KBq incubated for 12 hrs followed by replacement with fresh media and measured after 24 hrs by CCK-8 method relative to control; type: functional, U-87MG ATCC
U-87 MG [15] = assay: Antitumor activity against human U-87 MG cells xenografted in female BALB/c nude mouse model assessed as tumor growth inhibition at 0.37 MBq, iv measured after 8 days postinjection relative to control; type: functional, U-87MG ATCC; settings: time 8 day
U-87 MG [16] = assay: Antitumor activity against human U-87 MG cells xenografted in female BALB/c nude mouse model assessed as tumor growth inhibition at 0.74 MBq, iv measured after 8 days postinjection relative to control; type: functional, U-87MG ATCC; settings: time 8 day
U-87 MG [17] = assay: Antitumor activity against human U-87 MG cells xenografted in female BALB/c nude mouse model assessed as tumor growth inhibition at 1.11 MBq, iv measured after 8 days postinjection relative to control; type: functional, U-87MG ATCC; settings: time 8 day
U-87 MG [18] = assay: Antitumor activity against human U-87 MG cells xenografted in female BALB/c nude mouse model assessed as tumor growth inhibition at 0.37 MBq, iv measured after 36 days postinjection relative to control; type: functional, U-87MG ATCC; settings: time 36 day
U-87 MG [19] = assay: Antitumor activity against human U-87 MG cells xenografted in female BALB/c nude mouse model assessed as tumor growth inhibition at 0.74 MBq, iv measured after 36 days postinjection relative to control; type: functional, U-87MG ATCC; settings: time 36 day
[20] = Toxicity in female BALB/c nude mouse model assessed as animal death at 0.74 MBq, iv measured after 38 days; type: organism-based; settings: in vivo, 912 h, time 38 day
[21] = Toxicity in female BALB/c nude mouse model assessed as animal death at 1.11 MBq, iv measured after 10 days; type: organism-based; settings: in vivo, 240 h, time 10 day
[22] = Toxicity in female BALB/c nude mouse model assessed as body weight loss measured at 0.74 to 1.11 MBq, iv after 40 days of postinjection; type: organism-based; settings: in vivo, 960 h, dose 0.74-1.11 MBq, time 40 day
[23] = Toxicity in female BALB/c nude mouse assessed as red blood cell count at 0.37 to 1.11 MBq, iv measured after 7 days of postinjection by blood analysis; type: organism-based; settings: in vivo, 168 h, dose 0.37-1.11 MBq, time 7 day
[24] = Toxicity in female BALB/c nude mouse assessed as effect on liver at 0.37 to 1.11 MBq, iv measured after 7 days of postinjection by H and E staining based analysis; type: organism-based; settings: in vivo, 168 h, dose 0.37-1.11 MBq, time 7 day
[25] = Toxicity in female BALB/c nude mouse assessed as hemoglobin indices at 0.37 to 1.11 MBq, iv measured after 7 days of postinjection by blood analysis; type: organism-based; settings: in vivo, 168 h, dose 0.37-1.11 MBq, time 7 day
[26] = Toxicity in female BALB/c nude mouse assessed as decrease platelet count at 0.37 to 1.11 MBq, iv measured after 7 days of postinjection by blood analysis; type: organism-based; settings: in vivo, 168 h, dose 0.37-1.11 MBq, time 7 day
[27] = Toxicity in female BALB/c nude mouse assessed as effect on lung at 0.37 to 1.11 MBq, iv measured after 7 days of postinjection by H and E staining based analysis; type: organism-based; settings: in vivo, 168 h, dose 0.37-1.11 MBq, time 7 day
[28] = Toxicity in female BALB/c nude mouse assessed as effect on kidney at 0.37 to 1.11 MBq, iv measured after 7 days of postinjection by H and E staining based analysis; type: organism-based; settings: in vivo, 168 h, dose 0.37-1.11 MBq, time 7 day
[29] = Toxicity in female BALB/c nude mouse assessed as effect on stomach at 0.37 to 1.11 MBq, iv measured after 7 days of postinjection by H and E staining based analysis; type: organism-based; settings: in vivo, 168 h, dose 0.37-1.11 MBq, time 7 day
[30] = Toxicity in female BALB/c nude mouse assessed as thyroid gland damage at 1.11 MBq, iv measured after 7 days of postinjection by H and E staining based analysis; type: organism-based; settings: in vivo, 168 h, time 7 day
[31] = Stability of the compound in fetal bovine serum incubated for 3 to 24 hrs by RCP analysis (Del); type: ADME, cell-free; settings: cattle, time 3-24 hrs
U-87 MG [32] = assay: Antitumor activity against human U-87 MG cells assessed as inhibition of cell proliferation by measuring reduction in number of Ki67 positive cells at 1.11 MBq, iv administered for 7 days by immunohistochemical analysis; type: functional, organism-based; settings: U-87MG ATCC, time 7.0 day, tested as the 211At-labelled form
U-87 MG [33] = assay: Antitumor activity against human U-87 MG cells assessed as induction of apoptosis in tumor tissue at 1.11 MBq, iv by TUNEL analysis; type: functional, organism-based; settings: U-87MG ATCC, tested as the 211At-labelled form
U-87 MG [34] = assay: Antitumor activity against human U-87 MG cells xenografted in female BALB/c nude mouse model assessed as increase in survival time at 0.74 to 1.11 MBq, iv measured upto 70 days postinjection; type: functional, organism-based; settings: U-87MG ATCC, dose 0.74-1.11 MBq, time <= 70.0 day, tested as the 211At-labelled form

`N#C[C@@H]1CC(F)(F)CN1C(=O)CNC(=O)c1ccnc2ccc(OCCCN3CCN(C(=O)CCCc4ccc([131I])cc4)CC3)cc12` gave a logP [1] of 2.43, a Drug uptake [2] of 3.71% and a Drug uptake [3] of 7.77%.
Work on `[211AtH]` yielded a Drug uptake [4] of 2.75% and a Drug uptake [5] of 11.22%.
`N#C[C@@H]1CC(F)(F)CN1C(=O)CNC(=O)c1ccnc2ccc(OCCCN3CCN(C(=O)c4ccc([131I])cc4)CC3)cc12` showed a logP [1] of 2.12.
Work on `N#C[C@@H]1CC(F)(F)CN1C(=O)CNC(=O)c1ccnc2ccc(OCCCN3CCN(C(=O)CCCc4ccc([211At])cc4)CC3)cc12` yielded a Stability [6] of 91.4%, a Stability [7] of 88.17% and an Activity (Albumin [8]) of 7.63%. For the same compound, the logP [1] was 2.37, the Activity (Albumin [9]) was 3.54% and the Activity (Albumin [10]) was 4.01%. For the same compound, the Drug uptake [2] was 2.06%, the Drug uptake [11] was 40.8% and the Drug uptake [12] was 12.86%. The “inhibition (INH)” value (U-87 MG [13]) was 70.95%, the “inhibition (INH)” value (U-87 MG [14]) was 48.58% and the TGI (U-87 MG [15]) was 84.98%. The TGI (U-87 MG [16]) was 92.28%, the TGI (U-87 MG [17]) was 94.99% and the TGI (U-87 MG [18]) was 10.46%. The TGI (U-87 MG [19]) was 4.2%, the Activity [20] was “Toxic” and the Activity [21] was “Toxic”. For the same compound, the Activity [22] was “Non-toxic”, the Activity [23] was “Non-toxic” and the Activity [24] was “Non-toxic”. For the same compound, the Activity [25] was “Non-toxic”, the Activity [26] was “Toxic” and the Activity [27] was “Non-toxic”. The Activity [28] was “Non-toxic”, the Activity [29] was “Non-toxic” and the Activity [30] was “Toxic”.
`N#C[C@@H]1CC(F)(F)CN1C(=O)CNC(=O)c1ccnc2ccc(OCCCN3CCN(C(=O)c4ccc([211At])cc4)CC3)cc12` gave a logP [1] of 1.96 and a Stability [31] of 71%.
For `N#C[C@@H]1CC(F)(F)CN1C(=O)CNC(=O)c1ccnc2ccc(OCCCN3CCN(C(=O)CCCc4ccc([At])cc4)CC3)cc12`, the Activity (U-87 MG [32]) was “Active”, the Activity (U-87 MG [33]) was “Active” and the Activity (U-87 MG [34]) was “Active”.
